Results published in patent US8937090B2, “Parakeratosis inhibitor, pore-shrinking agent and external composition for skin” (Shiseido Company, Ltd., priority 2005, dated 2015).

Assays:
[1] = tested on: hairless mouse (HR-1); experiment: Parakeratosis-inhibiting effect test (oleic acid applied to back of hairless mouse; visual rough skin evaluation and parakeratosis value); assay type: in vivo; details: for parakeratosis-inhibiting effect: in words, summary of Table 1; for Visual evaluation (average of four animals): rough skin score, control = 2.0, no skin roughness = 0.0, 3 days application after 10 mass % oleic acid; for Parakeratosis value (average of four animals): scale 1.0 to 3.0, higher = parakeratosis advanced, control 2.0
Description: Aqueous solutions (containing 30 mass % of ethanol) of 3 mass % of a β-alanine derivative or salt thereof were prepared mainly as the evaluation sample. The pH was regulated by hydrochloric acid or sodium hydroxide so as to be 7.0 to 7.5. When sample solubility was low, the solution was prepared accordingly.
100 μL of 10 mass % oleic acid solution (solvent: ethanol) were applied to the back of a hairless mouse (HR-1; Hoshino Laboratory Animals). Then the sample solution (β-alanine derivative, and the like) was applied 100 μL at a time. This procedure was continued for three days. […] At the same time, the stratum corneum at the back of the hairless mouse was peeled off with tape, the nuclei were stained by hematoxylin, and the degree of parakeratosis was observed and evaluated by a parakeratosis value within a range of 1.0 to 3.0 (in 0.25 increments).

[2] = tested on: cheeks of healthy human males; experiment: Human pore-shrinking effect (replica of cheek pores, three-dimensional laser scanning microscope); assay type: in vivo; details: for pore-shrinking effect: in words, summary of Table 2; for Replica assessment value (average of n = 5): twice a day for one month, pore size rating (1-13) after minus before application, control 0.3
Description: An experiment was conducted whereby a sample was applied twice a day for one month to the cheeks of healthy human males in groups of 5 men each. Aqueous solutions (containing 15 mass % of ethanol) of 3 mass % of the β-alanine derivative or a salt thereof were prepared mainly as the evaluation sample. The pH was regulated by hydrochloric acid or sodium hydroxide so as to be 7.0 to 7.5. When the sample solubility was low, the solution was prepared accordingly. The control was an aqueous 15% ethanol solution. The sample aqueous solution and the control aqueous solution were applied to one half of the face at a time.
A replica was collected before and after continuous application, and changes in the shape of the pores at the same site were observed using a three-dimensional laser scanning microscope. The size of the pores was visually evaluated in the 13 steps of 1 through 13 (with the pores becoming larger as the numbers became larger), the difference in the ratings before and after application (after application—before application) was calculated, and the efficacy of each sample was studied using this difference as the replica assessment value.

[3] = tested on: hairless mice (HR-1); experiment: Inhibiting effect on rough skin induced by oleic acid application (transepidermal water loss); assay type: in vivo, mouse; design: ΔTEWL value: unit not given here; details: for rough skin preventing/ameliorating effect (ΔTEWL value versus control aqueous solution): in words, summary of Table 3; for ΔTEWL value: average of four mice, 3 days after 10 mass % oleic acid, control 12.0, increase = rough skin worse
Description: In order to investigate the inhibiting effect of β-alanine derivatives and salts thereof on rough skin induced by oleic acid application, the transepidermal water loss (TEWL value) before and after application was measured, the difference was compared with the control (control aqueous solution), and the effect was determined. […] The TEWL was determined using the TM210 TEWA Meter (Courage+Khazaka Electronic GmBH).
100 μL of 10 mass % oleic acid (solvent: ethanol) was applied to the back of hairless mice (HR-1, four mice per group). Then a sample solution (β-alanine derivatives) was applied 100 μL at a time. This procedure was continued for three days. On the following day, the TEWL value of the back was determined and the values of the four animals were averaged.

[4] = tested on: panel of 20 women; experiment: Sensory irritation tests; assay type: in vivo, human; details: for sensory irritation: in words, summary of Table 4; for Evaluation (sensory irritation, class of average rating): 1 mL to cheek, rated for ten minutes
Description: 1 mL of a control aqueous solution and the sample aqueous solution prepared in Example 1 were applied using a cotton swab to the left or right cheek, respectively, of each member of a panel of 20 women, and the irritating sensation was evaluated every 30 seconds for ten minutes beginning immediately after application, whereby a final evaluation was reported. The evaluation of the irritating sensation was made based on the following four levels of rating criteria, and the average rating was calculated, whereby the average was classified by the following criteria.
3: Continuation is not possible because of extremely strong irritation, such as tingling sensation, burning sensation, stinging sensation, itching, and the like.
2: Intolerable because of strong irritation, such as tingling sensation, burning sensation, stinging sensation, itching, and the like.
1: Tolerable, but with slight irritation such as tingling sensation, burning sensation, stinging sensation, itching, and the like.
0: Not particularly irritating.
(Evaluation Criteria) • A: average rating of less than 0.2 • B: average rating of from 0.2 to less than 1.0 • C: average rating of from 1.0 to less than 2.0 • D: average rating of 2.0 or greater

Row | Structure (SMILES) | parakeratosis-inhibiting effect [1] | Visual evaluation (average of four animals) ([1]; sample 3 mass %) | Parakeratosis value (average of four animals) ([1]; sample 3 mass %) | pore-shrinking effect [2] | Replica assessment value (average of n = 5) ([2]; sample 3 mass %) | rough skin preventing/ameliorating effect (ΔTEWL value versus control aqueous solution) [3] | ΔTEWL value ([3]; sample 3 mass %) | sensory irritation [4] | Evaluation (sensory irritation, class of average rating) ([4]; sample 3 mass %) | Visual evaluation (average of four animals) ([1]; sample 1.5 mass %) | Parakeratosis value (average of four animals) ([1]; sample 1.5 mass %) | Replica assessment value (average of n = 5) ([2]; sample 1.0 mass %) | ΔTEWL value ([3]; sample 1.5 mass %) | Evaluation (sensory irritation, class of average rating) ([4]; sample 1.5 mass %)
1 | COc1cccc(C(=O)NCCC(=O)O)c1 [N-(3′-methoxybenzoyl)-β-alanine] | reduced the parakeratosis value | 1.2 | 1.2 | effect was seen | −1.0 | effect was seen | 6.9 | no problem of sensory irritation | A (average rating of less than 0.2) |  |  |  |  | 
2 | O=C(O)CCNS(=O)(=O)c1ccccc1 [N-benzenesulfonyl-β-alanine] | reduced the parakeratosis value | 1.1 | 1.2 | effect was seen | −0.7 | effect was seen | 5.4 | no problem of sensory irritation | A (average rating of less than 0.2) |  |  |  |  | 
3 | COc1ccc(C(=O)NCCC(=O)O)cc1 [N-(4′-methoxybenzoyl)-β-alanine] | reduced the parakeratosis value |  |  | effect was seen |  | effect was seen |  | no problem of sensory irritation |  | 1.2 | 1.1 | −1.2 | 5.7 | A (average rating of less than 0.2)
4 | NC(=O)NCCC(=O)O [3-ureidopropionic acid, reference compound] | effect was not seen | 2.0 | 2.2 |  |  | no effect was seen | 11.9 |  |  |  |  |  |  | 
5 | O=C(O)CCNCc1ccccc1 [N-benzyl-β-alanine] | reduced the parakeratosis value | 1.2 | 1.2 | effect was seen | −0.8 | effect was seen | 8.9 | no problem of sensory irritation | A (average rating of less than 0.2) |  |  |  |  | 
6 | O=C(O)CCNc1ccccn1 [N-(2′-pyridyl)-β-alanine] | reduced the parakeratosis value | 1.4 | 1.3 | effect was seen | −0.8 | effect was seen | 5.5 | no problem of sensory irritation | A (average rating of less than 0.2) |  |  |  |  | 
7 | CC(=O)NCCC(=O)O [N-acetyl-β-alanine, reference compound] | effect was not seen | 1.8 | 1.7 |  |  | no effect was seen | 12.1 |  |  |  |  |  |  | 
8 | N=C(N)NCCC(=O)O [3-guanidinopropionic acid, reference compound] | effect was not seen | 2.1 | 2.1 |  |  | no effect was seen | 12.3 |  |  |  |  |  |  | 
9 | C[C@H](N)C(=O)O [alanine, reference compound] |  |  |  |  |  |  |  | strong sensory irritation | D (average rating of 2.0 or greater) |  |  |  |  | 
